Reference: US10568925B2, “Extracts of Curcuma amada and uses thereof” (DHARMA BIOMEDICAL, LLC, priority 2015, dated 2020)
Like-named read-outs stand apart in the source and are kept apart here.

Columns and labels:
SJRH30 cell line = assay: RT-PCR gene expression, SJRH30; assay type: cell-based, human; details: SJRH30, 72 h
Experimental: (§1) FIGS. 20A-20B: Gene expression analysis of apoptotic genes (p53, Bcl-2, Bax and Bak) by RT-PCR in eRMS RD (FIG. 20A) and aRMS SJRH30 (FIG. 20B) cells treated with VBL, CP, CA and their combinations. Total RNA was extracted from cells treated with drugs and their combinations for 72 h and RT-PCR assay performed with 5 μg of RNA using gene specific primers. The house keeping gene GAPDH is also amplified as control.
(§2) mRNA expression of apoptosis-associated genes (Bax, Bcl-2, Bak and p53) and inflammation-associated genes (Cox-2, NF-κB and STATS) were analyzed by reverse transcriptase-polymerase chain reaction (Ramachandran et al. 2012). The expression of a house keeping gene, Glyceraldehyde 3-phosphate dehydrogenase (GAPDH) was used as a control. The relative expression of genes was quantified using gel pictures by the UNSCAN-IT GEL′ software (Silk Scientific, Inc., Orem, Utah). Since the ratios of Bax/Bcl-2, Bak/Bcl-2 and Bax/Bak expression were very much associated with the fate of cells undergoing apoptosis, these estimates were calculated and plotted against drug concentrations (Ramachandran et al. 2012).

RD cell line = assay: RT-PCR gene expression, RD; assay type: cell-based, human; details: 72 h
Experimental: as §1, §2

[1] = test system: embryonal (RD) rhabdomyosarcoma cell line; assay: MTT cytotoxicity in embryonal rhabdomyosarcoma cells; assay type: cell-based, human; details: for IC50 / IC90: Homo sapiens, Rhabdomyosarcoma cell
Experimental: (§3) Both aRMS (SJRH30) and eRMS (RD) cell lines were purchased from American Type Culture Collection, Manassas, Va. SJRH30 and RD cells were grown in Rosewell Park Memorial Institute 1640 (RPMI 1640) and Dulbecco's Modified Eagle's medium (DMEM), respectively, supplemented with 10% FBS and antibiotics in a 5% CO2 incubator.
(§4) Rhabdomyosarcoma cells were treated with increasing concentrations of drugs and/or extracts for 72 hours in 96-well plates. MTT assay performed with the Cell Proliferation kit I (Roche Biochemicals, IN) was used to analyze cytotoxicity of individual drugs, extracts and their combinations (Ramachandran et al. 2012).
(§5) Mean inhibitory concentrations (ICs) and standard deviation estimates were calculated using Microsoft Excel software. The fraction of surviving cells at each concentration of drugs/combinations was used for the analysis of synergism/additiveness/antagonism between drugs/extracts by the CompuSyn software (ComboSyn, Inc., Paramus, N.J.). Synergism was evaluated by the Combination Index (CI) method of Chou and Talalay (1983) which is based on the median-effect principle. The CIs were calculated by the Chou-Talalay equations for multiple drug effects which take into account both potency (IC values) and shape (slope, m) of dose-effect curve (Ramachandran et al. 2010).

[2] = test system: aRMS (SJRH30) nude mice xenografts; assay: Rhabdomyosarcoma xenograft study; assay type: in vivo
Experimental: Male athymic nude (nu/nu) mice of the NCrNUstrain (4 weeks old weighing 18-22 g) were purchased from Taconic Labs, German Town, N.Y. Tissue cultured SJRH30 aRMS cells (10^7 cells/site) in 0.1 ml of Hank's balanced salt solution were injected subcutaneously into the left and right flank of the nude mice with a 21-guage needle. When the tumors measured 0.5 cm^3, therapy was started with 20 mice in each group. Treatment groups included control (saline), 2 mg/kg VBL, 10 mg/kg CA and 2 mg/kg VBL+10 mg/kg CA. VBL was dissolved in saline and administered intraperitoneally on alternate days for a total of 10 injections starting on the first day of tumor measurement and treatment. CA was initially dissolved in ethanol and diluted in water so as to make 0.1% alcohol in it and given as drinking water for the entire duration of the study. Tumor size (length×width), body weight and survival data were collected twice a week. Tumor measurements were recorded using a vernier caliper and tumor volume and tumor growth rates were calculated according to the formula described earlier (Ramachandran et al. 2003; 2006). Tumor growth rate data was analyzed by one-way analysis of variance (ANOVA) with Dunnett's multiple comparison test. Survival data was analyzed with Kaplan Meier statistics using Graphpad Prism software and significant differences among treatment groups were calculated.

[3] = test system: alveolar (SJRH30) rhabdomyosarcoma cell line; assay: MTT cytotoxicity in alveolar rhabdomyosarcoma cells; assay type: cell-based, human; details: for IC50 / IC90: Homo sapiens
Experimental: as §3, §4, §5

[4] = test system: U-87MG human glioblastoma cell line; assay: MTT cytotoxicity in U-87MG glioblastoma cells; assay type: cell-based; details: 72 hours
Experimental: Human glioblastoma cell line (U-87MG) was purchased from American Type Culture Collection, Manassas, Va. and the cells were grown in RPMI medium supplemented with 10% fetal bovine serum (FBS) and antibiotics in a humidified 5% CO2 incubator maintained at 37° C. The normal mouse embryonic hypothalamus cell line (mHypoE-N1) was purchased from CELLutions Biosystems, Inc, Burlington, Ontario, Canada and was grown in DMEM, supplemented with 10% FBS and antibiotics in the CO2 incubator.
Glioblastoma (U-87MG) cells were treated with increasing concentrations of CA, temozolomide, etoposide or their combination for 72 hours in 96-well plates. MTT [3-(4,5-Dimethyl thiazol-2-yl)-2,5-diphenyltetrazolium bromide] assay performed with the Cell Proliferation Kit I (Roche Biochemicals, IN) was used to analyze cytotoxicity of individual drugs/extracts and their combinations. The experiments were repeated four times with three replications for each treatment and the IC50, IC75 and IC90 values were calculated (Ramachandran et al. 2010; Ramachandran et al. 2012). The relative cytotoxicity of CA in normal mouse hypothalamus cell line (mHypoE-N1) was also analyzed to compare the toxicity and specificity of CA in normal and brain tumor cells.
Mean inhibitory concentrations (ICs) and standard deviation estimates were calculated using Microsoft Excel software using data from three separate experiments. The fraction of surviving cells at each concentration of drugs/combinations was used for the analysis of synergism/additiveness/antagonism between drugs/extracts by the CompuSyn software (ComboSyn, Inc., Paramus, N.J.).

[5] = test system: U-87MG nude mice xenografts; assay: Glioblastoma xenograft study; assay type: in vivo; details: vs olive oil control; IR 50 mg/kg intraperitoneally, CA (50/mg) gavage; p<0.05
Experimental: FIG. 16: Inhibition of tumor growth rate in U-87MG xenografts treated with olive oil (control), irinotecan (IR), CA, and IR+CA in combination. Xenografts (n=15/group) were administered intraperitoneally with olive oil (control) or IR (50 mg/kg), whereas CA (50/mg) was given gavage (introduction directly to the stomach). Tumor measurements are recorded twice per week and mean±SD estimates of tumor growth rate are plotted against days after treatment (*p<0.05; **p<0.01, ***p<0.001 as compared to control).
FIG. 17: Kaplan-Meier survival curve analysis of glioblastoma (U-87MG) nude mice xenografts treated with olive oil control, IR, CA, and IR+CA. The difference between treatment groups are significant (*p<0.05).

Compound | expression of Bcl-2 (SJRH30 cell line) | expression of p53, Bax and Bak (SJRH30 cell line) | expression of Bcl-2 (RD cell line) | expression of p53, Bax and Bak (RD cell line) | IC75 ([1]; RD, 72 hours, MTT) | IC75 ([3]; SJRH30, 72 hours, MTT) | IC75 [4] | IC50 ([4]; Homo sapiens) | IC90 ([4]; Homo sapiens, read-out: IC90) | also measured
CC[C@]1(O)C[C@@H]2CN(CCc3c([nH]c4ccccc34)[C@@](C(=O)OC)(c3cc4c(cc3OC)N(C)[C@H]3[C@@](O)(C(=O)OC)[C@H](OC(C)=O)[C@]5(CC)C=CCN6CC[C@]43[C@@H]65)C2)C1 [Vinblastine (VBL), Vinblastine] | decrease | increase | decrease | increase | 0.200 ± 0.010 µg/mL | 36.110 ± 2.970 µg/mL | – | – | – | IC50 ([1]; RD, 72 hours, MTT, read-out: IC50): 0.01 ± 0.002 µg/mL; IC90 ([1]; RD, 72 hours, MTT, read-out: IC90): > 200 µg/mL; weight gain of xenografts / overall weight loss ([2]; mouse, in vivo): absence of any overall weight loss; tumor growth rate ([2]; vs saline control, VBL 2 mg/kg intraperitoneally, CA 10 mg/kg in drinking water, p<0.001 by ANOVA): significantly inhibited; IC50 ([3]; SJRH30, 72 hours, MTT, read-out: IC50): 0.191 ± 0.01 µg/mL; IC90 ([3]; SJRH30, 72 hours, MTT, read-out: IC90): > 200 µg/mL
O=P1(N(CCCl)CCCl)NCCCO1 (centres unmarked) [Cyclophosphamide (CP), Cyclophosphamide] | decrease | increase | decrease | increase | >200 µg/mL | >200 µg/mL | – | – | – | IC50 ([1]; 72 h): 172 ± 8.53 µg/mL; IC90 ([1]; 72 h): > 200 µg/mL; cell death ([3]; 200 μg/ml dose, aRMS cells): 45%; IC50 ([3]; SJRH30, 72 h): > 200 µg/mL; IC90 ([3]; SJRH30, 72 h): > 200 µg/mL
COc1cc([C@@H]2c3cc4c(cc3[C@@H](O[C@@H]3O[C@@H]5CO[C@@H](C)O[C@H]5[C@H](O)[C@H]3O)[C@H]3COC(=O)[C@H]23)OCO4)cc(OC)c1O [ETP, etoposide] | – | – | – | – | – | – | 127.50 ± 3.53 µg/mL | 6.5 ± 2.54 µg/mL | > 200 µg/mL | –
CCc1c2c(nc3ccc(OC(=O)N4CCC(N5CCCCC5)CC4)cc13)-c1cc3c(c(=O)n1C2)COC(=O)[C@]3(O)CC [IR, irinotecan] | – | – | – | – | – | – | – | – | – | tumor growth rate [5]: significantly inhibited
Cn1nnc2c(C(N)=O)ncn2c1=O [TMZ, temozolomide] | – | – | – | – | – | – | >200 µg/mL | 176 ± 10.5 µg/mL | > 200 µg/mL | –
COc1cc(/C=C/C(=O)CC(=O)/C=C/c2ccc(O)c(OC)c2)ccc1O [CUR, curcumin] | – | – | – | – | – | – | 51.00 ± 7.07 µg/mL | 37.3 ± 4.04 µg/mL | > 200 µg/mL | IC90 [4]: >200 µg/mL; IC75 ([4]; listed as curcumin): 51.00 ± 7.07 µg/mL
